Experimental data taken from patent US11957669B2, “Pharmaceutical composition containing (R)-N-[1-(3,5-difluoro-4-methansulfonylamino-phenyl)-ethyl]-3-(2-propyl-6-trifluoromethyl-pyridin-3-yl)-acrylamide” (AMOREPACIFIC CORPORATION, priority 2017, dated 2024).

How the values were obtained:
[1] = Solubility of the compound of Formula (1) in various solvents (excess compound, shaking, HPLC); type: physicochemical; conditions: for solubility at 24 h: thermodynamic from solid
Method: An excess amount of the compound of Formula (1) was added to 1 mL of each solvent described in Table 1 below and stirred for 24 hours at 25° C. while shaking at 200 rpm (Shaking incubator, SI 600R, JEIO TECH, Korea). Thereafter, a centrifugation was performed at 10,000 rpm for 10 minutes, and the supernatant was filtered using a membrane filter (0.2 μm), then diluted moderately with methanol and analyzed by HPLC.

[2] = as above; type: physicochemical

Work on `CCCc1nc(C(F)(F)F)ccc1/C=C/C(=O)N[C@H](C)c1cc(F)c(NS(C)(=O)=O)c(F)c1` [compound of Formula (1), (R)—N-[1-(3,5-difluoro-4-methanesulfonylamino-phenyl)-ethyl]-3-(2-propyl-6-trifluoromethyl-pyridin-3-yl)-acrylamide] yielded a solubility at 24 h ([1]; 25 °C, organic solvent or mixture, in dimethyl sulfoxide, diethylene glycol monoethyl ether, 2-pyrrolidone and polyethylene glycol (summary of Table 1)) of at least 100 mg/mL, a solubility at 24 h ([1]; oil or lipid, in Cocoyl caprylocaprate, 25° C., 24 hours) of 0.46 mg/mL and a solubility at 24 h ([1]; oil or lipid, in Corn oil, 25° C., 24 hours) of 1.8 mg/mL. It also gave a solubility at 24 h ([1]; oil or lipid, in Ethyl oleate, 25° C., 24 hours) of 1 mg/mL, a solubility at 24 h ([1]; oil or lipid, in Isopropyl myristate, 25° C., 24 hours) of 1.18 mg/mL and a solubility at 24 h ([1]; oil or lipid, in Miglyol, 25° C., 24 hours) of 1.4 mg/mL. The solubility at 24 h ([1]; oil or lipid, in Octyldodecanol, 25° C., 24 hours) was 1.77 mg/mL, the solubility at 24 h ([1]; oil or lipid, in Oleic acid, 25° C., 24 hours) was 0.43 mg/mL and the solubility at 24 h ([1]; oil or lipid, in Oleyl Alcohol, 25° C., 24 hours) was 6.32 mg/mL. The solubility at 24 h ([1]; oil or lipid, in Propylene glycol monocaprylate, 25° C., 24 hours) was 75 mg/mL, the solubility at 24 h ([1]; oil or lipid, in Propylene glycol monolaurate, 25° C., 24 hours) was 7.75 mg/mL and the solubility at 24 h ([1]; oil or lipid, in Triglycerides, Medium chain, 25° C., 24 hours) was 1.9 mg/mL. The solubility at 24 h ([1]; organic solvent or mixture, in 2-Pyrrolidinone, 25° C., 24 hours) was 212 mg/mL, the solubility at 24 h ([1]; organic solvent or mixture, in Acetonitrile, 25° C., 24 hours) was 108 mg/mL and the solubility at 24 h ([1]; organic solvent or mixture, in Caprylocaproyl polyoxyl-8 glycerides, 25° C., 24 hours) was 46.7 mg/mL. It also gave a solubility at 24 h ([1]; organic solvent or mixture, in Diethylene glycol monoethyl ether, 25° C., 24 hours) of 289 mg/mL, a solubility at 24 h ([1]; organic solvent or mixture, in Dimethyl sulfoxide, 25° C., 24 hours) of 632 mg/mL and a solubility at 24 h ([1]; organic solvent or mixture, in Dimethylacetamide, 25° C., 24 hours) of 80 mg/mL. For the same molecule, the solubility at 24 h ([1]; organic solvent or mixture, in Ethanol, 25° C., 24 hours) was 75.3 mg/mL, the solubility at 24 h ([1]; organic solvent or mixture, in Glycerol, 25° C., 24 hours) was 0.84 mg/mL and the solubility at 24 h ([1]; organic solvent or mixture, in Lauroyl macrogol-32 glycerides, 25° C., 24 hours) was 24.1 mg/mL. The solubility at 24 h ([1]; organic solvent or mixture, in Methanol, 25° C., 24 hours) was 178 mg/mL, the solubility at 24 h ([1]; organic solvent or mixture, in Oleoyl polyoxyl-6 glycerides, 25° C., 24 hours) was 4.36 mg/mL and the solubility at 24 h ([1]; organic solvent or mixture, in Poloxamer 124, 25° C., 24 hours) was 66.7 mg/mL. The solubility at 24 h ([1]; organic solvent or mixture, in Polyethylene glycol(PEG) 300, 25° C., 24 hours) was 146 mg/mL, the solubility at 24 h ([1]; organic solvent or mixture, in Polyethylene glycol(PEG) 400, 25° C., 24 hours) was 168 mg/mL and the solubility at 24 h ([1]; organic solvent or mixture, in Polyethylene glycol-35 castor oil, 25° C., 24 hours) was 2.7 mg/mL. The solubility at 24 h ([1]; organic solvent or mixture, in Polyoxyl 40 hydrogenated castor oil, 25° C., 24 hours) was 36 mg/mL, the solubility at 24 h ([1]; organic solvent or mixture, in Polysorbate 20, 25° C., 24 hours) was 48 mg/mL and the solubility at 24 h ([1]; organic solvent or mixture, in Polysorbate 40, 25° C., 24 hours) was 37 mg/mL. It also gave a solubility at 24 h ([1]; organic solvent or mixture, in Polysorbate 60, 25° C., 24 hours) of 35 mg/mL, a solubility at 24 h ([1]; organic solvent or mixture, in Polysorbate 80, 25° C., 24 hours) of 11.8 mg/mL and a solubility at 24 h ([1]; organic solvent or mixture, in Propylene glycol, 25° C., 24 hours) of 25 mg/mL. It also gave a solubility at 24 h ([1]; organic solvent or mixture, in Triacetin, 25° C., 24 hours) of 56.5 mg/mL, a solubility at 24 h ([1]; in Purified water, 25° C., 24 hours) of 0.05 mg/mL and a solubility ([1]; water, background statement) of under 0.1 mg/mL. The solubility ([2]; aqueous with cosolvent or surfactant or cyclodextrin, in a 10% (w/w) aqueous solution of PEG 400) was about 0.08 mg/mL and the solubility in oil ([2]; oil, background statement) was “significantly low solubility in oil”.
